Measurements: patent publication EP0566020A1, “Benzimidazoles, pharmaceutical compositions thereof and processes for their preparation” (Dr. Karl Thomae GmbH, priority 1992, dated 1993)

Biological target: T1, Angiotensin II-Rezeptor (Rattus norvegicus, UniProt P25095)
T1 construct: Das Gewebe (Rattenlunge) wird in Tris-Puffer; from tissue; host or cells: rat lung homogenate (membrane pellet, 20,000 x g)
T1 sequence (P25095 1-359): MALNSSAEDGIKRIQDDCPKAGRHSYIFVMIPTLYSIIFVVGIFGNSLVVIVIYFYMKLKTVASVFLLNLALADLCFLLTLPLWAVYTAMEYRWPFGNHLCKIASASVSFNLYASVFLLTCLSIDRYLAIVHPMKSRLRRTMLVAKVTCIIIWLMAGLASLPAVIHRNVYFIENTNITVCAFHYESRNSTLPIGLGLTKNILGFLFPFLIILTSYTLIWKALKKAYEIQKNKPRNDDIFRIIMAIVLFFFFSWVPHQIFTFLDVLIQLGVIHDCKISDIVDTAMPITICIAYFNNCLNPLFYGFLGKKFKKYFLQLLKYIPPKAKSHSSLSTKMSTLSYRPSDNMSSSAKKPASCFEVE
Test: Angiotensin II receptor binding ([125I]-angiotensin II displacement, rat lung homogenate)
Set-up: species or system Ratte
Conditions: Rattenlunge homogenate, 50 pM [¹²⁵I]-Angiotensin II, 60 Min. bei 37°C; read-out: IC₅₀
Description: Methodenbeschreibung Angiotensin II-Rezeptorbindung
Das Gewebe (Rattenlunge) wird in Tris-Puffer (50 mMol Tris, 150 mMol NaCl, 5 mMol EDTA, pH 7.40) homogenisiert und zweimal je 20 Min. bei 20.000 x g zentrifugiert. Das endgültige Pellet wird in Inkubations-Puffer (50 mMol Tris, 5 mMol MgCl₂, 0,2 % BSA, pH 7,40) 1:75, bezogen auf das Feuchtgewicht des Gewebes, resuspendiert. Je 0,1 ml Homogenat wird für 60 Min. bei 37°C mit 50 pM [¹²⁵I]-Angiotensin II (NEN, Dreieich, FRG) und steigenden Konzentrationen der Testsubstanz in einem Gesamtvolumen von 0,25 ml inkubiert. Die Inkubation wird durch rasche Filtration durch Glasfiber-Filtermatten beendet. Die Filter werden je 4 ml eiskaltem Puffer (25 mMol Tris, 2.5 mMol MgCl₂, 0,1 % BSA, pH 7,40) gewaschen. Die gebundene Radioaktivität wird in einem Gamma-Counter ermittelt. Aus der Dosis-Wirkungskurve wird der entsprechende IC₅₀-Wert ermittelt.

| SMILES | IC50 [nM] |
| --- | --- |
| CCCc1nc2c(C)cc(C3=NC(C)(C)CO3)cc2n1Cc1ccc(-c2ccccc2C(=O)O)cc1 [Substanz H, 4'-[[2-n-Propyl-4-methyl-6-(4,4-dimethyl-oxazolin-2-yl)-1H-benzimidazol-1-yl]-methyl]-biphenyl-2-carbonsäure-di-trifluoracetat] | 37 |
| CCCc1nc2c(C)cc(-c3nc4c(n3C)CCCC4)cc2n1Cc1ccc(-c2ccccc2-c2nnn[nH]2)cc1 [Substanz C, 4'-[[2-n-Propyl-4-methyl-6-(1-methyl-5,6,7,8-tetrahydrobenzimidazol-2-yl)-1H-benzimidazol-1-yl]-methyl]-2-(1H-tetrazol-5-yl)biphenyl] | 2.6 |
| CCCc1nc2c(C)cc(-c3nc4c(n3Cc3ccccc3)CCCC4)cc2n1Cc1ccc(-c2ccccc2C(=O)O)cc1 [Substanz D, 4'-[[2-n-Propyl-4-methyl-6-(1-benzyl-5,6,7,8-tetrahydrobenzimidazol-2-yl)-1H-benzimidazol-1-yl]-methyl]-biphenyl-2-carbonsäure] | 6 |
| CCCc1nc2c(C)cc(-c3nc(-c4ccccc4)c(C)n3C)cc2n1Cc1ccc(-c2ccccc2C(=O)O)cc1 [Substanz I, 4'-[[2-n-Propyl-4-methyl-6-(1,5-dimethyl-4-phenyl-imidazol-2-yl)-1H-benzimidazol-1-yl]-methyl]-biphenyl-2-carbonsäure-hydrat] | 3.2 |
| CCc1nc2c(C)cc(-c3nc4c(n3-c3ccccc3)CCCC4)cc2n1Cc1ccc(-c2ccccc2C(=O)O)cc1 [Substanz E, 4'-[[2-Ethyl-4-methyl-6-(1-phenyl-5,6,7,8-tetrahydrobenzimidazol-2-yl)-1H-benzimidazol-1-yl]-methyl]-biphenyl-2-carbonsäure-hydrat] | 46 |
| CCc1nc2c(C)cc(-c3nc4c(n3CC)CCCC4)cc2n1Cc1ccc(-c2ccccc2-c2nnn[nH]2)cc1 [Substanz G, 4'-[[2-Ethyl-4-methyl-6-(1-ethyl-5,6,7,8-tetrahydro-benzimidazol-2-yl)-1H-benzimidazol-1-yl]-methyl]-2-(1H-tetrazol-5-yl)-biphenyl-hydrat] | 1.6 |
| CCCc1nc2c(C)cc(-c3nc4c(n3CC(=O)O)CCCC4)cc2n1Cc1ccc(-c2ccccc2C(=O)O)cc1 [Substanz F, 4'-[[2-n-Propyl-4-methyl-6-(1-carboxymethyl-5,6,7,8-tetrahydrobenzimidazol-2-yl)-1H-benzimidazol-1-yl]-methyl]-biphenyl-2-carbonsäure-semihydrat] | 38 |
| CCCc1nc2c(C)cc(-c3nc4c([nH]3)CCCC4)cc2n1Cc1ccc(-c2ccccc2C(=O)O)cc1 [Substanz A, 4'-[[2-n-Propyl-4-methyl-6-(5,6,7,8-tetrahydrobenzimidazol-2-yl)-1H-benzimidazol-1-yl]-methyl]-biphenyl-2-carbonsäure] | 12 |
| CCCc1nc2c(C)cc(-c3nc4c(n3C)CCCC4)cc2n1Cc1ccc(-c2ccccc2C(=O)O)cc1 [Substanz B, 4'-[[2-n-Propyl-4-methyl-6-(1-methyl-5,6,7,8-tetrahydrobenzimidazol-2-yl)-1H-benzimidazol-1-yl]-methyl]-biphenyl-2-carbonsäure] | 3.8 |
| CCCc1nc2c(C)cc(-c3nc(C(C)C)c(C)n3C)cc2n1Cc1ccc(-c2ccccc2C(=O)O)cc1 [Substanz K, 4'-[[2-n-Propyl-4-methyl-6-(4-isopropyl-1,5-dimethyl-imidazol-2-yl)-1H-benzimidazol-1-yl]-methyl]-biphenyl-2-carbonsäure x 1,25 Wasser] | 19.5 |
